Patent publication US9090617B1, “Agonists of Src homology-2 containing protein tyrosine phosphatase-1 and treatment methods using the same” (National Taiwan University, priority 2011, dated 2015)
“Also recorded” adds a separate entry of the source. Where two headings read alike, the source gives them in different places.

Tests used:
phospho-STAT3 (Tyr705) = assay: Phospho-STAT3 (Tyr705) sandwich ELISA; format: cell-based; details: for p-STAT3 / STAT3 activity (phospho-STAT3 ELISA and luciferase reporter): PLC5 cells
Method: A PathScan Phospho-Stat3 (Tyr705) Sandwich ELISA Kit was used for the detection of phospho-STAT3 (Cell Signaling, Danvers, Mass.). Cells were pre-treated with IL-6 1 ng/ml and then exposed with various compounds at 10 μM for 24 h. After incubation with cell lysates, both non-phospho- and phospho-Stat3 proteins are captured by the coated antibody. The expression of phospho-STAT3 was measured at 450 nm absorbance.
The decreased level of P-STAT3 induced by these derivatives was correlated with cell toxicity. In the other words, these derivatives induced cell death in part through inhibition of STAT3.
We also assayed the activation status of p-STAT3 by STAT3 ELISA. […] SC-1 or sorafenib-treated cell extracts were incubated with antibody against phosphorylated STAT3 at Y705. […] To evaluate the transcriptional activity, STAT3-binding region was cloned into Luc reporter. […] The firefly luciferase activity was evaluated and normalized by Renilla luciferase.
p-STAT3 activity: PLC5 cells treated with SC derivatives were collected in RIPA buffer and analyzed in p-STAT3 ELISA kit. The assay protocol follows the manufacturer.

PLC5 tumors = assay: Subcutaneous PLC5 xenograft; format: in vivo, mice; details: for average tumor size versus control mice at the end of treatment: SC PLC5 tumor-bearing mice
Method: All experimental procedures using these mice were done in accordance with protocols approved by the Institutional Laboratory Animal Care and Use Committee of National Taiwan University. Each mouse was inoculated s.c. in the dorsal flank with 1×10^6 PLC5 cells suspended in 0.1 mL of serum-free medium containing 50% Matrigel (BD Biosciences). When tumors reached 100 to 200 mm3, mice received SC-40 tosylate (10 or 20 mg/kg) orally once daily. Tumors were measured weekly using calipers, and their volumes were calculated using the following standard formula: width×length×height×0.52.
(§1) We established an HCC orthotopic model using luc2-expressed PLC5 cells inoculated into liver of nude mice. […] To further correlate the molecular mechanism with the anticancer effect in vivo, p-STAT3 and SHP-1 activity in tumor extract from vehicle- and SC-treated mice was analyzed by immunoblotting. […] The pharmacokinetics of SC-43 was determined (FIG. 25E).

[1] = tested on: PLC5/luc2 orthotopic tumors; assay: HCC orthotopic model with PLC5/luc2 cells; format: in vivo, mice; details: 10 mg/kg/day orally
Method: All experimental procedures using these mice were done in accordance with protocols approved by the Institutional Laboratory Animal Care and Use Committee of National Taiwan University. Each mouse was inoculated within liver […] with 1×10^4 PLC5/luc cells suspended in 0.1 mL of serum-free medium containing 50% Matrigel (BD Biosciences). […] Tumor growth was monitored by non-invasive in vivo imaging system (IVIS) image system twice weekly.
as §1

[2] = tested on: p-STAT3, cyclin D1, survivin, Mc1-1; assay: Western blot of STAT3-related proteins in HCC cells; format: cell-based; details: HCC cells, 24 h
Method: Cells were treated with various compounds at 5 and 10 μM for 24 h. Cell lysates were analyzed by western blot.
HCC cells treated with SC-43 (10 μM for 24 h) were collected with RIPA lysis buffer. Antibodies for immunoblotting such as cyclin D1 was purchased from Santa Cruz Biotechnology. Other antibodies such as survivin, phospho-STAT3 (Tyr705), STAT3, Mc1-1, SOCS1, and SOCS3 were from Cell Signaling.

JAK2 = biological target: T1, JAK2 (Homo sapiens, UniProt O60674); assay: JAK2 kinase activity; format: cell-based; details: PLC5 cells, 10 μM, 24 h
T1 construct: endogenous in cells; host or cells: PLC5
Excerpt: (§2) The RediPlate 96 EnzChek® Tyrosine Phosphatase Assay Kit (R-22067) was used for SHP-1 activity assay (Molecular Probes, Carlsbad, Calif.). The Raf-1 kinase cascade assay kit (Upstate-Millipore, Billerica, Mass.) was used to examine the Raf-1 kinase activity. The JAK2 kinase activity kit was purchased from Reaction Biology Corp. (Malvern, Pa.).

Huh-7 tumors = details: for SHP-1 activity in Huh-7 tumors: tumor extract
Method: Male NCr athymic nude mice (5-7 weeks of age) were obtained from the National Laboratory Animal Center (Taipei, Taiwan). All experimental procedures using these mice were performed in accordance with protocols approved by National Taiwan University. […] Controls received vehicle (Chen K F et al. Cancer Res. 2008; 68:6698-6707).

SHP-1 [3] = biological target: T2, SHP-1 (Homo sapiens, UniProt P29350); assay: Phosphatase activity of SHP-1 immunoprecipitated from PLC5 cells, incubated with compound in vitro; format: biochemical; set-up: PLC5 protein extract was incubated with anti-SHP-1 antibody in immunoprecipitation buffer overnight; endogenous in cells; host or cells: PLC5 (PLC/PRF/5)
Method: PLC5 protein extract was incubated with anti-SHP-1 antibody in immunoprecipitation buffer overnight. Protein G Sepharose 4 Fast flow (GE Healthcare Bio-Science) was added to each sample, followed by incubation for 3 hours at 4° C. with rotation. […] RediPlate 96 EnzChek Tyrosine Phosphatase Assay kit (R-22067) was used for SHP-1 activity assay (Molecular Probes).

Raf-1 = biological target: T3, Raf-1 (Homo sapiens, UniProt P04049); assay: Raf-1 kinase activity in lysates of treated cells; format: cell-based
T3 construct: Raf-1 immunoprecipitated from PLC5 cell extracts was incubated with MEK recombinant protein; endogenous in cells; host or cells: PLC5
Excerpt: as §2

VEGFR1 = biological target: T4, VEGFR1 (Homo sapiens, UniProt P17948); assay: VEGFR1 activity in HUVEC cells; format: cell-based; details: 24 h
T4 construct: we tested the effect of SC-49 on the activity of VEGFR1 in HUVEC cells; endogenous in cells; host or cells: HUVEC
Excerpt: To further investigate the effect of SC-49 on angiogenesis, we tested the effect of SC-49 on the activity of VEGFR1 in HUVEC cells.

STAT3 = STAT3 luciferase reporter assay; format: cell-based; details: 10 μM, 24 h
Method: Cells were seeded in 96-well plate and pre-treated with IL-6 at the dose […] for 30 min. The STAT3 reporter kit was purchased from SABiosciences (Frederick, Md.).
STAT3 reporter assay: PLC5 cells were seeded in a 96-well plate. Cells were pretransfected with STAT3 reporter construct for 24 h and treated with derivatives for another 24 h. The STAT3 Reporter Kit was purchased from SABiosciences.

PLC5 cells = assay: MTT assay for cell growth inhibition in PLC5 cells; format: cell-based
Method: These compounds were analyzed by MTT assay for cell growth inhibition in the PLC5 cells.
Next, we changed the pyridine to a quinoline ring and amide linker to generate compounds 12-25. These compounds were also analyzed by MTT assay for cell growth inhibition in the PLC5 cells.

HCC cells [4] = assay: Apoptosis analysis by flow cytometry (sub-G1); format: cell-based; details: for apoptosis (sub-G1): HCC cells, 24 h
Method: Apoptotic cells were measured by flow cytometry (sub-G1). After treatment with various compounds, cells were trypsinized, collected by centrifugation and resuspended in PBS. After centrifugation, the cells were washed in PBS and resuspended in […] (PI) staining solution. Specimens were incubated in the dark for 30 min at 37° C. and then analyzed with an EPICS Profile II flow cytometer (Coulter Corp., Hialeah, Fla.). All experiments were performed in triplicate
Collected cells were fixed in 75% Ethanol and stained with 20 ug/ml Propidium Iodide (PI). Sub-G1 analysis was performed by flow-cytometry. […] Points, mean; bars, SD (n=6).

HCC cells [5] = assay: cells; details: 72 h
Excerpt: Points, mean; bars, SD (n=6).
Points, mean; bars, SD ([…]). […] The N-SH2 domain is in orange, the C-SH2 domain is in marine, the PTP domain is in hot pink, and the linkers between them are in gray. […] ELISA, enzyme-linked immunosorbent assay.

Huh-7 xenograft tumor = assay: Huh-7 xenograft with SC-59 or sorafenib and radiation; format: in vivo, mice; details: 10 mg/kg p.o. once daily plus 5 Gy radiation for 4 days
Method: (A) The effects of SC-59 and radiation on tumor growth. Each mouse was inoculated subcutaneously in the right leg with […] Huh-7 cells suspended in Matrigel. When the tumor reached a volume of 400-600 mm3, mice received vehicle, 5 Gy radiation (one fraction per day) for 4 days, or 10 mg/kg SC-59 p.o. once daily, or a combination for the duration of the study. The data points indicate the mean values (n=6) and the bars indicate the standard error. There were significant differences between the combined treatment group and the vehicle control group (*, P<0.05, **, P<0.01). (B) Left, the expression of P-STAT3 in the Huh-7 tumors was analyzed by western blot. Right, quantified data for p-STAT3 to STAT3. (C) The activity of SHP-1 in Huh-7 tumors. Values are means±SD, *, P<0.05. (D) Body weight of mice after SC-59 and RT treatment. […] The data points indicate the mean values (n=6) and the bars indicate the standard error. […] (H) Body weight of mice treated with vehicle, RT, sorafenib, and combination.
To further elucidate the molecular events responsible for this synergistic effect, we examined the expression level of p-STAT3 in the tumor extract.

SHP-1 [6] = biological target: T2, SHP-1; assay: Phosphatase activity of recombinant SHP-1; format: biochemical; details: 25 ng protein, 30 minutes
Method: RediPlate 96 EnzChek Tyrosine Phosphatase Assay kit (R-22067) was used for SHP-1 activity assay (Molecular Probes). Recombinant SHP-1 protein (25 ng) was incubated with either SC-43 or SC-40 at the indicated dose for 30 minutes and then analyzed by SHP-1 phosphatase activity.

T2 sequence (P29350 whole entry): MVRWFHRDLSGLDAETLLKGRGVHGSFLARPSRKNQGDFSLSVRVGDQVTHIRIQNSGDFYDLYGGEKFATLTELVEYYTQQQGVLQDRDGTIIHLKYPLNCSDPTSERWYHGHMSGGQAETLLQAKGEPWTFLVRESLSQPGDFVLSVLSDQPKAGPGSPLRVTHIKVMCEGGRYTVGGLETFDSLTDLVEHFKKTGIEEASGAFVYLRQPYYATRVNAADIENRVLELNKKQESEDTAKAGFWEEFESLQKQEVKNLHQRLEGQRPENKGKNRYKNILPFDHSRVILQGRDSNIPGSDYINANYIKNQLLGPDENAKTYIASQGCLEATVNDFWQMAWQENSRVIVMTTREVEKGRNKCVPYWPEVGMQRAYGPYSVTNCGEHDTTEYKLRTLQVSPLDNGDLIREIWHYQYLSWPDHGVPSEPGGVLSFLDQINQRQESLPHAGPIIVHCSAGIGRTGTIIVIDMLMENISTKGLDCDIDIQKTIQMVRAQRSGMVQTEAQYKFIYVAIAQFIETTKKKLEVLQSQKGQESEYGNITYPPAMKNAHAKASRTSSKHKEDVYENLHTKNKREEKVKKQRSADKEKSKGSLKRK
T3 sequence (P04049 whole entry): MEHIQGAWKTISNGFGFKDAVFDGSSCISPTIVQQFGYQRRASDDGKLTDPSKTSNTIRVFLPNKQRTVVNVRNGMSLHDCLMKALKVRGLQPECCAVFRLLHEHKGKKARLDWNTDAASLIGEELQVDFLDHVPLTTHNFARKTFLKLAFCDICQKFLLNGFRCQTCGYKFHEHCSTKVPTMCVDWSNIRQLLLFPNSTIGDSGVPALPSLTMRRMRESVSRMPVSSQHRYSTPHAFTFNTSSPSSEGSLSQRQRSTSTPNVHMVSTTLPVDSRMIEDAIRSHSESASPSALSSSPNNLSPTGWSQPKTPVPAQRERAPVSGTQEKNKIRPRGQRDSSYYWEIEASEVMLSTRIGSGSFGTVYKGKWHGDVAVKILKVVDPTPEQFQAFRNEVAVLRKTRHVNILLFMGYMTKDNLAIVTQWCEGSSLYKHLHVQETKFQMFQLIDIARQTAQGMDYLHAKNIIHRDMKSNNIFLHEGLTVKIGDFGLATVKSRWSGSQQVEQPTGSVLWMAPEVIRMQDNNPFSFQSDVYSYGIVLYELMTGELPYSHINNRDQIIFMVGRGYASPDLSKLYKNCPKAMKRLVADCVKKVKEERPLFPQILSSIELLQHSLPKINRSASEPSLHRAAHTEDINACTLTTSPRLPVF
T4 sequence (P17948 27-1338): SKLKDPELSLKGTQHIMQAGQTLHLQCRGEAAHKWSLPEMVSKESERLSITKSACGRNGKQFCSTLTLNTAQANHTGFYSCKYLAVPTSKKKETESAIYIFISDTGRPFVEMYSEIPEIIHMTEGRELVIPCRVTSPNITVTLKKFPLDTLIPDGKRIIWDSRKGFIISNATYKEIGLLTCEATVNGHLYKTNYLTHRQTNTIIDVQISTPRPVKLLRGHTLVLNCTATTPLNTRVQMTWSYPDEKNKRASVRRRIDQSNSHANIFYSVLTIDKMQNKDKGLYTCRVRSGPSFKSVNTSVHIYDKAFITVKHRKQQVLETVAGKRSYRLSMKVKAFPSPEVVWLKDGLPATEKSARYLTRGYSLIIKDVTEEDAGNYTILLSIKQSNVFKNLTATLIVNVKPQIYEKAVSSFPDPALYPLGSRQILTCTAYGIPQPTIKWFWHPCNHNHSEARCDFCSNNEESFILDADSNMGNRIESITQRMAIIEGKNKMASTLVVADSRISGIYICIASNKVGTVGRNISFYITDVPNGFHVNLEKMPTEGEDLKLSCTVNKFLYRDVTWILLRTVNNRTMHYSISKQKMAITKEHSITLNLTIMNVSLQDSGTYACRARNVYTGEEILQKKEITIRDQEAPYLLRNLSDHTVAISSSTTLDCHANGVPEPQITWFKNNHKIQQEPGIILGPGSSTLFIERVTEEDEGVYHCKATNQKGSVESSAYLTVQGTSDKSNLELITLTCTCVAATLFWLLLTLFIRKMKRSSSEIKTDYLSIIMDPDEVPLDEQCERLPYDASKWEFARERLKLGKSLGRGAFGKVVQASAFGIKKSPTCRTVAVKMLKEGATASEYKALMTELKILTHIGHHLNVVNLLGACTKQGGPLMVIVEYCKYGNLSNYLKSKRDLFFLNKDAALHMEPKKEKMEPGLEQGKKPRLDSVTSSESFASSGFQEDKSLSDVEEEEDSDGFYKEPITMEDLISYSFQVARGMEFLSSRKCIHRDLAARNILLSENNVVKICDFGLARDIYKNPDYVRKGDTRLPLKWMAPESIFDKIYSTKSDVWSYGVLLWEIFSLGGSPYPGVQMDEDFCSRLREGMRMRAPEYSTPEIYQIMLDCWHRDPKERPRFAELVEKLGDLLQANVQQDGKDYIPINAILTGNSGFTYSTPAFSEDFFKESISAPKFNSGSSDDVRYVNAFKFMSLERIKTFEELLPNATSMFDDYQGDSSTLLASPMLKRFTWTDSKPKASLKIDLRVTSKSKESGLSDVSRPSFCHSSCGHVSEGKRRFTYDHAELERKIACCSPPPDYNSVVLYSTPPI
T1 sequence (O60674 whole entry): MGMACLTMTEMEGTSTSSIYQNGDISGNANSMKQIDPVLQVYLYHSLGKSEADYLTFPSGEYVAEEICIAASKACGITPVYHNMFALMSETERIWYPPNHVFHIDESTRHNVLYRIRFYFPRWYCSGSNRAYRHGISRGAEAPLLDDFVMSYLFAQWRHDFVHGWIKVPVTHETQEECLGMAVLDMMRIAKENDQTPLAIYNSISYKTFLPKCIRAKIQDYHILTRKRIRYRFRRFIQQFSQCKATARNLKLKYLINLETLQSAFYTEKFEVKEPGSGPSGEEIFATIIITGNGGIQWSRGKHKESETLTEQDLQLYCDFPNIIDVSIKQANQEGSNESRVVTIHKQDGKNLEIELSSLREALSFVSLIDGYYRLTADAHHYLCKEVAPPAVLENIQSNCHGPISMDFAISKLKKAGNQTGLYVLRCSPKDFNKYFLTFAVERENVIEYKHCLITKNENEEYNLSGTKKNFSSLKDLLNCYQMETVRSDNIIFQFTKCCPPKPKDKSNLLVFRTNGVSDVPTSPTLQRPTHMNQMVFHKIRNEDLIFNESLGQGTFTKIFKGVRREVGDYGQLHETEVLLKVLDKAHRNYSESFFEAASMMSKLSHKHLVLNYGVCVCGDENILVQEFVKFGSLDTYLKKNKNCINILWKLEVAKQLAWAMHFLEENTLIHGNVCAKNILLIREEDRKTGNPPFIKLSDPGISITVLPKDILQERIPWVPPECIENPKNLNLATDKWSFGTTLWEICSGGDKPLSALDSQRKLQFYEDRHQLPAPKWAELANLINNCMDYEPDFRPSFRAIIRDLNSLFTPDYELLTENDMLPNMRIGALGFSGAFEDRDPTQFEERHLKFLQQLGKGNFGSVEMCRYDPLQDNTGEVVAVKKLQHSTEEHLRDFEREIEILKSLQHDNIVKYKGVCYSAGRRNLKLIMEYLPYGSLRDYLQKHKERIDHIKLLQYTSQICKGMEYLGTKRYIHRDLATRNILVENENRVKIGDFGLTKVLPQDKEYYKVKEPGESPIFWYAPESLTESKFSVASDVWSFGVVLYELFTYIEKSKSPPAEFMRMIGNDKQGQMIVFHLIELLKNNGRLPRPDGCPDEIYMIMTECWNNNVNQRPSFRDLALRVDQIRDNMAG

Compound: Cc1ccc(NC(=O)Nc2ccc(C)c(Oc3ccc(C#N)cc3)c2)cc1Oc1ccc(C#N)cc1 [SC-60, 1,3-bis(3-(4-cyanophenoxy)-4-methylphenyl)urea]
- p-STAT3 / STAT3 activity (phospho-STAT3 ELISA and luciferase reporter) (phospho-STAT3 (Tyr705)): showed significant inhibition of STAT3 activity
- average tumor size versus control mice at the end of treatment (PLC5 tumors; 10 mg/kg/day orally): less than half of those of control mice
- anti-HCC effect and survival in orthotopic model [1]: displayed significant survival benefits compared with mice treated with vehicle or sorafenib
- p-STAT3 and STAT3-related proteins (Western blot) [2]: downregulated phospho-STAT3 (p-STAT3) at tyrosine 705 in a dose-dependent manner

Compound: CNC(=O)c1cc(Oc2ccc(NC(=O)Nc3ccc(Cl)c(C(F)(F)F)c3)cc2)ccn1 [Sorafenib, reference compound]
- kinase activity of JAK2 (JAK2): neither sorafenib nor SC-1 altered the kinase activity of JAK2
- Huh-7 tumor size / growth versus control (Huh-7 tumors; 10 mg/kg/day orally): less than half that of control mice
- body weight or toxicity (Huh-7 tumors; mouse, in vivo, po, 10 mg/kg/day): no apparent differences in body weight or toxicity
- SHP-1 activity in Huh-7 tumors (Huh-7 tumors): showed significant induction of SHP-1 activity in vivo
- SHP-1 activity in Huh-7 tumors (Huh-7 tumors; listed as sorafenib): enhanced the activity of SHP-1 in Huh-7 tumours
- activity of p-STAT3 by STAT3 ELISA (phospho-STAT3 (Tyr705); Sk-Hep1 cells pre-treated with IL-6, 24 h): decreased the activity of p-STAT3 significantly
- activity of SHP-1 in SHP-1 immunoprecipitates incubated with drug (SHP-1 [3]; PLC5 lysates, incubated 6 hours): increase the activity of SHP-1
- inhibition at 5 µM (Raf-1; PLC5, read-out: inhibition of Raf-1 kinase activity of the untreated cells): 50%
- reduction in Raf-1 kinase activity (Raf-1; Raf-1 immunoprecipitated from PLC5 or Hep3B cell extracts, 10 μM, 24 h): 20-40%
- activity of VEGFR1 (VEGFR1): significantly inhibited the activity of VEGFR1 in HUVEC cells
- transcription activity of STAT3 (Luc reporter) (STAT3): transcription activity of STAT3 was significantly decreased
- p-STAT3 and STAT3-related proteins (Western blot) [2]: down-regulated p-STAT3 at Y705 residue and suppressed Mc1-1 and cyclin D1
- IC50 (PLC5 cells): 8.3 µM
- apoptosis (sub-G1) (HCC cells [4]): showed a significant increase in sub-G1 phase population
- viability of HCC cells / cytotoxicity (HCC cells [5]; HCC cell lines, MTT): decreased the viability of various HCC cells
- tumor growth with radiotherapy combination (Huh-7 xenograft tumor): did not display a better synergistic effect when used in combination with radiotherapy

Compound: Nc1cc(Oc2cccc(NS(=O)(=O)c3cccc(C(F)(F)F)c3)c2)ccc1[N+](=O)[O-] [SC-40, N-(3-(trifluoromethyl)benzene-sulfonyl)-3-(3-amino-4-nitrophenoxy)benzenamine]
- p-STAT3 / STAT3 activity (phospho-STAT3 ELISA and luciferase reporter) (phospho-STAT3 (Tyr705)): induce strong inhibition of p-STAT3 activity; also recorded: showed more potent inhibition of the p-STAT3-related signaling pathway
- p-STAT3 and SHP-1 activity in PLC5 tumor lysate (PLC5 tumors; 10 mg/kg/day orally): Down-regulation of p-STAT3 and elevation of SHP-1 activity
- body weight of the animals (PLC5 tumors; PLC5 xenograft, 10 or 20 mg/kg orally once daily): do not affect body weight of the animals
- average tumor size versus control mice at the end of treatment (PLC5 tumors; 10 mg/kg/day orally): less than half that of control mice
- antitumor effect on PLC5 tumors (PLC5 tumors; SC-40 tosylate 10 or 20 mg/kg orally once daily): has significant anti-tumor effect on PLC5 tumors
- phosphatase activity of SHP-1 in vitro (SHP-1 [3]; SHP-1-containing PLC5 extract, 10 or 100 nmol/L, 30 min, 4° C.): increase phosphatase activity of SHP-1 in vitro
- p-STAT3 and STAT3-related proteins (Western blot) [2]: down-regulates phospho-STAT3-related signaling pathway in HCC
- apoptosis (sub-G1) (HCC cells [4]): show significant anti-cancer effects in HCC cells
- apoptosis in sorafenib-resistant cells (HCC cells [4]; sorafenib-resistant HCC cells (SR1)): resulted in significant apoptosis in sorafenib-resistant cells at submicromolar concentrations
- phosphatase activity of recombinant SHP-1 (SHP-1 [6]): increase phosphatase activity of SHP-1 in vitro
- viability of HCC cells / cytotoxicity (HCC cells [5]): showed lower 50% inhibitory concentration, compared to sorafenib
